Measurements as given in patent US10869873B2 (priority 2011, dated 2020).

What was measured:
[1] = test system: HeLa-derived TZM-b1 cells; assay: Viability of HIV-1 infected TZM-b1 cells; assay type: cell-based, human; conditions: HIV-1 infected TZM-b1 cells treated daily for 4 days
Text: To test the hypothesis that AAK1 and GAK are important for HIV infection, HeLa-derived TZM-b1 cells were used, which express CD4, CCR5 and CXCR4, as well as β-galactosidase and firefly luciferase reporter genes responsive to HIV transcription (Wei et al., Antimicrobial agents and chemotherapy 46:1896-1905, 2002). Cells were transfected with siRNAs targeting AAK1, GAK or a NT sequence followed by infection with the infectious HIV-1 NL4-3 clone (Adachi et al., J Virol 59:284-291, 1986), as described (Zhou et al., Cell Host & Microbe 4:495-504, 2008). Luciferase activity was measured at 96 hr postinfection.
Following 24, 48, and 72 hrs of treatment with inhibitory compounds or silencing with siRNAs, cells were incubated for 2-4 hrs at 37° C. in the presence of 10% AlamarBlue reagent (TREK Diagnostic Systems), as described (Einav et al., Nature Biotechnology 26, 1019-1027, 2008). Plates were then scanned and fluorescence was detected by using FLEXstation II 384 (Molecular Devices, Inc.).

HIV-1 NL4-3 = assay: HIV replication assay in TZM-b1 cells, luciferase; assay type: cell-based; conditions: for antiviral effect on HIV replication: HIV-1 infected TZM-b1 cells treated daily with serial dilutions for 4 days; for EC50: Human immunodeficiency virus 1, NL43, TZM-b1, 96 h, read-out: EC50, HIV replication
core-AP2M1 binding = assay: Core-AP2M1 co-immunoprecipitation in membranes of HCV infected Huh-7.5 cells; assay type: cell-based, HCV core / human AP2M1; conditions: membranes of Huh-7.5 cells infected with J6/JFH, 100 nM calyculin-A
Experimental: To determine whether core binds AP2M1 in the context of authentic HCV infection, co-immunoprecipitation assays in membrane fractions prepared from Huh-7.5 cells infected with cell culture-grown HCV (J6/JFH) were performed (Lindenbach et al., Science 309:623-626, 2005). AP2M1 could bring down core when anti-AP2M1 antibodies but not IgG controls were added to the membrane lysates. […] (FIG. 2D). […] Colocalization of core with AP2M1 in Huh-7.5 cells 72 hr following electroporation with J6/JFH HCV RNA was also investigated.
Membranes were prepared from ˜20×10^6 Huh-7.5 cells infected with HCV (J6/JFH) (Lindenbach, et al., Science 309, 623-626, 2005), as previously described (Einav et al., J Virol 78, 11288-11295, 2004). Briefly, cells were collected by trypsinization, washed once with PBS and resuspended in HME buffer (20 mM HEPES [pH 7.4], 1 mM EDTA, 2 mM MgCl2), supplemented with phenylmethylsulfonyl fluoride to a final concentration of 1 mM and a protease inhibitors cocktail (Sigma). Cells were lysed by two cycles of freeze-thaw in dry ice-ethanol and then passaged through a 27.5-gauge needle 10 times. Nuclei were removed by centrifugation at 250×g for 10 min, and the postnuclear supernatant was subjected to ultracentrifugation at 100,000×g for 30 min to obtain the membrane preparation. All steps were done at 4° C. […] Immunoprecipitates were analyzed by western blotting. […]

Compound | effect on viability [1] | antiviral effect on HIV replication (HIV-1 NL4-3) | EC50 (HIV-1 NL4-3) [nM] | binding of core to AP2M1 (co-immunoprecipitation) (core-AP2M1 binding)
CO[C@@H]1[C@H](N(C)C(=O)c2ccccc2)C[C@H]2O[C@]1(C)n1c3ccccc3c3c4c(c5c6ccccc6n2c5c31)C(=O)NC4 [PKC-412] | no effect on viability | significant dose response antiviral effect | – | –
CCN(CC)CCNC(=O)c1c(C)[nH]c(/C=C2\C(=O)Nc3ccc(F)cc32)c1C [sunitinib] | no effect on viability | – | 800 ± 400 | –
COC[C@@H]([C@H](O)[C@H](O)C(=O)NCC[C@H](C)c1nc(/C=C/C[C@@H]2O[C@]3(C[C@@H](O)[C@@H]2C)O[C@H]([C@H](C[C@H](O)[C@H](C)[C@H](O)[C@H](C)/C=C(C)/C(C)=C/C=C/C(C)=C\C#N)OC)[C@H](OP(=O)(O)O)C3(C)C)co1)N(C)C [calyculin A] | – | – | – | significantly augmented
C#Cc1cccc(Nc2ncnc3cc(OCCOC)c(OCCOC)cc23)c1 [erlotinib] | no effect on viability | significant dose response antiviral effect | 1400 ± 300 | –
